Measurements reported in article PMC7954579 (Cancer chemotherapy and pharmacology, 2020).

What was measured:
[1] = Plasma pharmacokinetics in patients; type: in vivo, human; details: for AUC / Cmax / half-life: human, plasma
HSP70 [2] = assay: Soluble HSP70 protein in patient plasma by ELISA; type: in vivo, human
HSP70 [3] = assay: HSP70 protein in patient PBMCs by western blot; type: in vivo, human; details: after onalespib alone (C0D4), all dose levels
[4] = IV, days 1, 4, 8, 11 of 21-day cycle, with AT7519 21 mg/m^2 (DL2)
HSP90 = details: cited from earlier work
[5] = twice-weekly schedule, monotherapy; cited from earlier work
[6] = All dose levels, C0D1, onalespib alone, n = 27, geometric mean
[7] = All dose levels, C1D1, onalespib with AT7519, n = 24, geometric mean
[8] = All dose levels, C1D11, onalespib with AT7519, n = 16, geometric mean
[9] = DL1, C0D1, onalespib 40 mg/m^2 IV alone, n = 5, geometric mean
[10] = DL1, C1D1, onalespib 40 mg/m^2 with AT7519 21 mg/m^2, n = 4, geometric mean
[11] = DL1, C1D11, onalespib 40 mg/m^2 with AT7519 21 mg/m^2, n = 2, geometric mean
[12] = DL2, C0D1, onalespib 80 mg/m^2 IV alone, n = 17, geometric mean
[13] = DL2, C1D1, onalespib 80 mg/m^2 with AT7519 21 mg/m^2, n = 16, geometric mean
[14] = DL2, C1D11, onalespib 80 mg/m^2 with AT7519 21 mg/m^2, n = 11, geometric mean
[15] = DL3, C0D1, onalespib 80 mg/m^2 IV alone, n = 5, geometric mean
[16] = DL3, C1D1, onalespib 80 mg/m^2 with AT7519 27 mg/m^2, n = 4, geometric mean
[17] = DL3, C1D11, onalespib 80 mg/m^2 with AT7519 27 mg/m^2, n = 3, geometric mean

CC(C)c1cc(C(=O)N2Cc3ccc(CN4CCN(C)CC4)cc3C2)c(O)cc1O [onalespib, (2,4-dihydroxy-5-isopropylphenyl)-[5-(4-methylpiperazin-1-ylmethyl)-1,3-dihydroisoindol-2-yl]methanone]
CL [1, 6]: 52.2 L/h/m^2
Vz [1, 6]: 754 L/m^2
CL [1, 7]: 58.4 L/h/m^2
Vz [1, 7]: 725 L/m^2
CL [1, 8]: 61.0 L/h/m^2
Vz [1, 8]: 706 L/m^2
CL [1, 9]: 51.3 L/h/m^2
Vz [1, 9]: 742 L/m^2
CL [1, 10]: 64.4 L/h/m^2
Vz [1, 10]: 891 L/m^2
CL [1, 11]: 65.6 L/h/m^2
Vz [1, 11]: 855 L/m^2
CL [1, 12]: 53.8 L/h/m^2
Vz [1, 12]: 804 L/m^2
CL [1, 13]: 57.5 L/h/m^2
Vz [1, 13]: 721 L/m^2
CL [1, 14]: 62.5 L/h/m^2
Vz [1, 14]: 743 L/m^2
CL [1, 15]: 47.7 L/h/m^2
Vz [1, 15]: 617 L/m^2
CL [1, 16]: 56.7 L/h/m^2
Vz [1, 16]: 606 L/m^2
CL [1, 17]: 53.1 L/h/m^2
Vz [1, 17]: 516 L/m^2
AUC ([1]; intravenous, AUC, DL1, C1D1, onalespib 40 mg/m^2 with AT7519 21 mg/m^2, n = 4, geometric mean): 621 ng·h/mL
AUC ([1]; intravenous, AUC, DL1, C1D11, onalespib 40 mg/m^2 with AT7519 21 mg/m^2, n = 2, geometric mean): 610 ng·h/mL
AUC ([1]; intravenous, AUC, DL2, C1D1, onalespib 80 mg/m^2 with AT7519 21 mg/m^2, n = 16, geometric mean): 1390 ng·h/mL
AUC ([1]; intravenous, AUC, DL2, C1D11, onalespib 80 mg/m^2 with AT7519 21 mg/m^2, n = 11, geometric mean): 1280 ng·h/mL
AUC ([1]; intravenous, AUC, DL3, C1D1, onalespib 80 mg/m^2 with AT7519 27 mg/m^2, n = 4, geometric mean): 1410 ng·h/mL
AUC ([1]; intravenous, AUC, DL3, C1D11, onalespib 80 mg/m^2 with AT7519 27 mg/m^2, n = 3, geometric mean): 1510 ng·h/mL
Cmax ([1]; intravenous, Cmax, DL1, C1D1, onalespib 40 mg/m^2 with AT7519 21 mg/m^2, n = 4, geometric mean): 146 ng/mL
Cmax ([1]; intravenous, Cmax, DL1, C1D11, onalespib 40 mg/m^2 with AT7519 21 mg/m^2, n = 2, geometric mean): 155 ng/mL
Cmax ([1]; intravenous, Cmax, DL2, C1D1, onalespib 80 mg/m^2 with AT7519 21 mg/m^2, n = 16, geometric mean): 331 ng/mL
Cmax ([1]; intravenous, Cmax, DL2, C1D11, onalespib 80 mg/m^2 with AT7519 21 mg/m^2, n = 11, geometric mean): 355 ng/mL
Cmax ([1]; intravenous, Cmax, DL3, C1D1, onalespib 80 mg/m^2 with AT7519 27 mg/m^2, n = 4, geometric mean): 331 ng/mL
Cmax ([1]; intravenous, Cmax, DL3, C1D11, onalespib 80 mg/m^2 with AT7519 27 mg/m^2, n = 3, geometric mean): 424 ng/mL
half-life ([1]; intravenous, t1/2,z, All dose levels, C0D1, onalespib alone, n = 27, geometric mean): 10 h
half-life ([1]; intravenous, t1/2,z, DL1, C1D1, onalespib 40 mg/m^2 with AT7519 21 mg/m^2, n = 4, geometric mean): 9.6 h
half-life ([1]; intravenous, t1/2,z, DL1, C1D11, onalespib 40 mg/m^2 with AT7519 21 mg/m^2, n = 2, geometric mean): 9.4 h
half-life ([1]; intravenous, t1/2,z, DL2, C1D1, onalespib 80 mg/m^2 with AT7519 21 mg/m^2, n = 16, geometric mean): 8.7 h
half-life ([1]; intravenous, t1/2,z, DL2, C1D11, onalespib 80 mg/m^2 with AT7519 21 mg/m^2, n = 11, geometric mean): 8.2 h
half-life ([1]; intravenous, t1/2,z, DL3, C1D1, onalespib 80 mg/m^2 with AT7519 27 mg/m^2, n = 4, geometric mean): 7.4 h
half-life ([1]; intravenous, t1/2,z, DL3, C1D11, onalespib 80 mg/m^2 with AT7519 27 mg/m^2, n = 3, geometric mean): 6.7 h
AUC ([1]; iv, 40 mg/m2, AUC, DL1, C0D1, onalespib 40 mg/m^2 IV alone, n = 5, geometric mean): 780 ng·h/mL
Cmax ([1]; iv, 40 mg/m2, Cmax, DL1, C0D1, onalespib 40 mg/m^2 IV alone, n = 5, geometric mean): 193 ng/mL
half-life ([1]; iv, 40 mg/m2, t1/2,z, DL1, C0D1, onalespib 40 mg/m^2 IV alone, n = 5, geometric mean): 10 h
AUC ([1]; iv, 80 mg/m2, AUC, DL2, C0D1, onalespib 80 mg/m^2 IV alone, n = 17, geometric mean): 1490 ng·h/mL
AUC ([1]; iv, 80 mg/m2, AUC, DL3, C0D1, onalespib 80 mg/m^2 IV alone, n = 5, geometric mean): 1680 ng·h/mL
Cmax ([1]; iv, 80 mg/m2, Cmax, DL2, C0D1, onalespib 80 mg/m^2 IV alone, n = 17, geometric mean): 349 ng/mL
Cmax ([1]; iv, 80 mg/m2, Cmax, DL3, C0D1, onalespib 80 mg/m^2 IV alone, n = 5, geometric mean): 487 ng/mL
half-life ([1]; iv, 80 mg/m2, t1/2,z, DL2, C0D1, onalespib 80 mg/m^2 IV alone, n = 17, geometric mean): 10.4 h
half-life ([1]; iv, 80 mg/m2, t1/2,z, DL3, C0D1, onalespib 80 mg/m^2 IV alone, n = 5, geometric mean): 9 h
HSP70 protein expression in plasma (HSP70 [2]; after onalespib alone (C0D4), all dose levels): Increased HSP70 protein expression
Soluble HSP70 expression in plasma (HSP70 [2]; patient with palate adenocarcinoma (confirmed PR), after onalespib alone): increase in soluble HSP70 expression
HSP70 protein expression in PBMCs (HSP70 [3]): Increased HSP70 protein expression
Maximally tolerated dose (MTD) of onalespib in the combination [4]: 80 mg/m^2
IC50 (HSP90): 700 pM
RP2D as individual agent [5]: 120 mg/m^2
